From patent publication US11478470B2, “Combination product of Bcl-2 inhibitor or Bcl-2/Bcl-xL dual inhibitor and BTK inhibitor and use thereof in the prevention and/or treatment of diseases” (ASCENTAGE PHARMA (SUZHOU) CO., LTD., priority 2018, dated 2022)
Where two headings read alike, the source gives them in different places.

What was measured:
DOHH2^R-ibrutinib cells = assay: CellTiter-Glo cell viability assay, ibrutinib-resistant DOHH2R-ibrutinib cells; type: cell-based, human; settings: for IC50: Homo sapiens, ibrutinib-resistant cells, CellTiter-Glo, 24 or 72 hours, read-out: IC50 value to the DOHH2^R-ibrutinib cell line (cell viability)
Experimental: (§1) DOHH2 cells were cultured in RPM11640 medium containing 10% calf serum, 1% antibiotics and 5 ug/ml verapamil (calcium ion channel blocker), and ibrutinib was added at a gradually increasing concentration from 0.5 uM to 10 uM. After exposure for about three months, a ibrutinib-resistant DOHH2R cell line was obtained, also referred to as DOHH2^R-ibrutinib. After DOHH2^R-ibrutinib was stabilized, it was continued to be cultured in culture medium containing 10 uM Ibrutinib to maintain its resistance. Ibrutinib is absent only in the susceptibility test with Compound 6 or 88.
(§2) Relative light units (RLU) were determined by a microplate reader (BioTek, Synergy H1 MF, USA). […] IC50 values were calculated using GraphPad Prism. IC50 was expressed as mean±standard deviation (SD).

DOHH2 cells = assay: CellTiter-Glo cell viability assay, DOHH2 cells (Example 11); type: cell-based; settings: Homo sapiens, DOHH-2, DOHH2 parental cells
Experimental: as §1, §2

[1] = tested on: various hematological malignancies cell lines including those from DLBCL and FL; assay: Anti-proliferative activity as single agent in hematological malignancies cell lines (data not shown); type: cell-based
DOHH-2 cells = assay: Flow cytometry analysis of apoptosis (Annexin V/PI), DOHH-2; type: cell-based, human; settings: DOHH-2, 24 hours; 10 nM Compound 6, 100 nM ibrutinib, or the combination
Experimental: (§3) Apoptosis was evaluated with AnnexinV/propidium iodide (PI) dyes (BD Biosciences, Cat. 556547) according to manufacturer's instructions. Briefly, cells were seeded in 24-well plates at a density 2×10^5 cells/well, and treated with Compound 6 and/or ibrutinib (Selleck) to induce apoptosis. After 24 h, cells were collected, washed twice with PBS (pH 7.4), and stained with Annexin-V and propidium iodide (PI) for 15 mins. Stained samples were analyzed using flow cytometer Attune NxT (Life technologies).
(§4) In the experiment, the combination treatment with Compound 6 and ibrutinib was evaluated for its ability of apoptosis induction on DOHH2 and OCI-LY1 cells by co-staining of Annexin-V/Propidium iodide (PI) followed by flow cytometry analysis (FIG. 7A). […] Flow cytometry analysis of apoptotic cells by Annexin V and propidium iodide (PI) co-staining in DOHH-2 and OCI-LY1 cell lines treated with 10 nM (DOHH-2) or 15 nM (OCI-LY1) Compound 6, 100 nM (DOHH-2) or 150 nM (OCI-LY1) ibrutinib, or the combination for 24 hours. Three independent experiments were conducted and the representative results are shown (7A). The percentages of Annexin V-positive, PI-positive, or double positive DOHH-2 (7B) and OCI-LY1 (7C) cells are plotted as bar charts and shown as mean±SEM (n=3) (**p<0.01, ***p<0.001).

OCI-LY1 cells = assay: Flow cytometry analysis of apoptosis (Annexin V/PI), OCI-LY1; type: cell-based, human; settings: OCI-LY1, 24 hours; 15 nM Compound 6, 150 nM ibrutinib, or the combination
Experimental: as §3, §4

[2] = tested on: human DOHH2 (FL) xenograft tumor; type: in vivo; settings: Cpd. 6 100 mg/kg, Ibrutinib 25 mg/kg; for TGI (%) on day 32 after administration: TGI = 100 − T/C%
Experimental: (§5) All animal experiments were strictly in accordance with the laboratory animal use and management practices of GenePharma Co., Ltd. and Ascentage Pharma Group Co., Ltd. The calculation of relevant parameters referred to the Chinese CFDA “Guidelines for Non-Clinical Research Techniques of Cytotoxic Antitumor Drugs”.
(§6) Animal body weight and tumor size were measured twice a week during the experiment. Tumor growth was observed periodically, and the animals were randomly divided into groups according to tumor size and mouse body weight when the tumors grew to an average volume of 100-200 mm^3. The conditions and death of the animals were observed every day. Routine monitoring included the effects of tumor growth and treatment on normal animal behaviors, including activity, feeding and drinking situations, weight gain or loss, eyes, coat and other abnormalities in the experimental animals. The deaths and clinical symptoms observed during the experiment were recorded in the raw data. The entire operations of administration, measurement of mouse body weight and tumor volume were performed in a clean bench. Plasma and tumor tissues were collected, weighed and photographed after the end of the last administration according to the experimental protocol. Plasma and tumor samples were frozen and stored at −80° C.
(§7) Tumor volume (TV) was calculated as: TV=a×b^2/2, in which a and b represented the length and width of the tumor as measured, respectively. The relative tumor volume (RTV) was calculated as: RTV=Vt/V1, in which V1 was the tumor volume at the time of grouping and administration, and Vt was the tumor volume measured on a day after administration. […] Change of body weight %=(measured body weight−body weight at the time of grouping)/body weight at the time of grouping×100%.
(§8) If the synergy factor was >1, there was a synergistic effect; if the synergistic factor=1, there was an additive effect; if the synergistic factor <1, there was an antagonistic effect.

[3] = tested on: human DOHH2 (FL) xenograft tumor; type: in vivo; settings: Cpd. 6 50 mg/kg, Ibrutinib 20 mg/kg
Experimental: (§9) . All animal experiments were strictly in accordance with the laboratory animal use and management practices of GenePharma Co., Ltd. and Ascentage Pharma Group Co., Ltd. The calculation of relevant parameters referred to the Chinese CFDA “Guidelines for Non-Clinical Research Techniques of Cytotoxic Antitumor Drugs”.
as §6
(§10) Tumor volume (TV) was calculated as: TV=a×b^2/2, in which a and b represented the length and width of the tumor as measured, respectively. The relative tumor volume (RTV) was calculated as: RTV=Vt/V1, in which V1 was the tumor volume at the time of grouping and administration, and Vt was the tumor volume measured on a day after administration. The evaluation index of anti-tumor activity was the relative tumor proliferation rate T/C (%), which was calculated as: relative tumor proliferation rate T/C (%)=(TRTV/CRTV)×100%, in which TRTV was the RTV of the treatment group, CRTV was the RTV of the vehicle control group; tumor remission rate (%) was calculated as: (the number of SD (stable disease), PR (tumor partial regression) and CR (tumor complete regression) in the tumor-bearing mice after treatment)/the total number of mice in the group×100%. Change of body weight %=(measured body weight−body weight at the time of grouping)/body weight at the time of grouping×100%.
(§11) ; The synergistic analysis was performed by the following formula: synergy factor=((A/C)×(B/C))/(AB/C); A=RTV value of the group administered with A only; B=RTV value of the group administered with B only; C=RTV value of the vehicle control group; AB=RTV value of the group administered with A and B in combination (Clarke R. Issues in experimental design and endpoint analysis in the study of experimental cytotoxic agents in vivo in breast cancer and other models [J]. Breast Cancer Research & Treatment, 1997, 46(2-3): 255-278). If the synergy factor was >1, there was a synergistic effect; if the synergistic factor=1, there was an additive effect; if the synergistic factor <1, there was an antagonistic effect.

[4] = tested on: human OCI-LY1 (DLBCL) xenograft tumor; type: in vivo; settings: Cpd. 6 50 mg/kg, Ibrutinib 20 mg/kg; for T/C on day 36 after administration: given as fraction
Experimental: as §9, §6, §10, §11

[5] = tested on: human OCI-LY1 (DLBCL) xenograft tumor; type: in vivo; settings: for RTV on the 43rd day after administration (mean ± standard error) / T/C (%) on day 43 after administration: Cpd. 6 100 mg/kg p.o. qd, Ibrutinib 15 mg/kg i.v. qd, day 43; for TGI (%) on day 43 after administration: TGI = 100 − T/C%
Experimental: as §5, §6, §7, §8
In short, when the average tumor volume reached approximately 90 mm^3, grouping and administration started. Ibrutinib was administered at a dose of 15 mg/kg, i.v., qd, from the day of grouping, for 3 weeks. […] On the 13th day after grouping, the administration was stopped and the observation period started.

[6] = Cpd. 6 100 mg/kg, Ibrutinib 15 mg/kg
[7] = Cpd. 6 100 mg/kg, Ibrutinib 15 mg/kg, including CR, PR and SD
[8] = Cpd. 6 100 mg/kg, Ibrutinib 15 mg/kg, mice per group
[9] = Cpd. 6 100 mg/kg, Ibrutinib 15 mg/kg, mice per group, listed as Cpd. 6

SMILES	IC50 (DOHH2^R-ibrutinib cells) [nM]	IC50 (DOHH2 cells) [nM]	apoptosis induction (Annexin V / PI positive cells) (DOHH-2 cells)	apoptosis induction (Annexin V / PI positive cells) (OCI-LY1 cells)	TGI (%) on day 32 after administration [2] [%]	RTV on day 32 after administration (mean ± standard error) [2]	T/C (%) on day 32 after administration [2] [%]	RTV on day 35 after administration (mean ± standard error) [3]	T/C (%) on day 35 after administration [3] [%]	RTV on day 36 after administration (mean ± standard error) [4]	T/C on day 36 after administration [4]	RTV on the 43rd day after administration (mean ± standard error) [5]	T/C (%) on day 43 after administration [5] [%]	TGI (%) on day 43 after administration [5, 6] [%]	RTV on day 50 after administration (mean ± standard error) [5, 6]	remission rate % on day 43 after administration [5, 7]	remission rate % on day 50 after administration [5, 7]	Tumor status on day 43 after administration: CR (tumor complete regression) [5, 8]	Tumor status on day 43 after administration: PR (tumor partial regression) [5, 8]	Tumor status on day 50 after administration: CR [5, 8]	also measured
CC1(C)CCC(CN2CCN(c3ccc(C(=O)NS(=O)(=O)c4ccc(NCC5CCOCC5)c([N+](=O)[O-])c4)c(Oc4cnc5[nH]ccc5c4)c3)CC2)=C(c2ccc(Cl)cc2)C1 [ABT-199, reference compound]	1190	51.1																			
O=C(NS(=O)(=O)c1ccc(NC[C@H]2COCCO2)c([N+](=O)[O-])c1)c1ccc(N2CCN(CC3=C(c4ccc(Cl)cc4)CC4(CCC4)CC3)CC2)cc1Oc1cnc2[nH]ccc2c1 [Compound 6, (S)-N-((4-(((1,4-dioxan-2-yl)methyl)amino)-3-nitrophenyl)sulfonyl)-2-((1H-pyrrolo[2,3-b]pyridin-5-yl)oxy)-4-(4-((6-(4-chlorophenyl)spiro[3.5]non-6-en-7-yl)methyl)piperazin-1-yl)benzamide]	648	48.4	slightly enhanced apoptotic activity	slightly enhanced apoptotic activity	81	2.4 ± 0.2	19	7.5 ± 0.7	44.40	2.2 ± 0.4	0.090	1.03 ± 0.33	4	96	2.64 ± 0.55	20%	( 10% )	1/5	1/5	0/5 CR,	anti-proliferative activities as a single agent compared with ABT-199 [1]: comparable if not better than ABT-199; RTV on day 43 after administration ([4]; day 43): 7.1 ± 0.4; remission rate % on day 68 after administration [5, 7]: PR ( 0% ); remission rate % on day 43 after administration ([5]; Cpd. 6 100 mg/kg, Ibrutinib 15 mg/kg, including CR, PR and SD, listed as Cpd. 6): ( 100% ); Tumor status on day 50 after administration: PR [5, 8]: 1/5 PR; Tumor status on day 68 after administration: CR [5, 8]: 0/5 CR, 0/5; Tumor status on day 68 after administration: PR [5, 8]: 0/5 CR, 0/5; Tumor status on day 43 after administration: CR (tumor complete regression) [5, 9]: 1/5 CR, 1/5; Tumor status on day 43 after administration: PR (tumor partial regression) [5, 9]: 1/5 CR, 1/5
Cc1c(S(C)(=O)=O)c(-c2cc(F)cc(N3CCN(c4ccc(NS(=O)(=O)c5ccc(N[C@H](CCN6CCC(C(=O)O)CC6)CSc6ccccc6)c(S(=O)(=O)C(F)(F)F)c5)cc4)CC3)c2)c(-c2ccc(Cl)cc2)n1C(C)C [Compound 88, (R)-1-(3-(4-(N-(4-(4-(3-(2-(4-chlorophenyl)-1-isopropyl-5-methyl-4-(methylsulfonyl)-1H-pyrrol-3-yl)-5-fluorophenyl)piperazin-1-yl)phenyl)-sulfamoyl)-2-(trifluoromethylsulfonyl)phenylamino)-4-(phenylthio)butyl)piperidine-4-carboxylic acid]	17																				time to cell death (DOHH2^R-ibrutinib cells; DOHH2^R-ibrutinib cells): ≤ 24 h
C=CC(=O)N1CCC[C@@H](n2nc(-c3ccc(Oc4ccccc4)cc3)c3c(N)ncnc32)C1 [Ibrutinib, reference compound]	12200	73.5	limited apoptosis activity	limited apoptosis activity	52	6.1 ± 0.8	48	11.4 ± 1.5	67.7	20.5 ± 2.1	0.810	15.9 ± 7.63	58	42	32.1 ± 1137	PR ( 0% )	( 0% )	0/5 CR, 0/5	0/5 CR, 0/5	0/5 CR,	increase of IC50 in DOHH2^R-ibrutinib versus DOHH2 cells (DOHH2^R-ibrutinib cells): 160 fold; Tumor status on day 50 after administration: PR [5, 8]: 0/5 PR
